# Data reported in PMC2862695 (The Journal of organic chemistry, 2009).
# Experiments:
# MEK1 = MEK1 (Homo sapiens, UniProt Q02750); test: dissociation constant against MEK1; assay type: binding; settings: read-out: Kd MEK1
# [1] = test system: iron-mediated neuronal damage; settings: likely by reduced phosphorylation of hemeoxygenase by ERK; cited from earlier work
# EGFR = EGFR (Homo sapiens, UniProt P00533); test: dissociation constant against EGFR; assay type: binding; settings: read-out: Kd EGFR
# Chain of EGFR (P00533 25-1210): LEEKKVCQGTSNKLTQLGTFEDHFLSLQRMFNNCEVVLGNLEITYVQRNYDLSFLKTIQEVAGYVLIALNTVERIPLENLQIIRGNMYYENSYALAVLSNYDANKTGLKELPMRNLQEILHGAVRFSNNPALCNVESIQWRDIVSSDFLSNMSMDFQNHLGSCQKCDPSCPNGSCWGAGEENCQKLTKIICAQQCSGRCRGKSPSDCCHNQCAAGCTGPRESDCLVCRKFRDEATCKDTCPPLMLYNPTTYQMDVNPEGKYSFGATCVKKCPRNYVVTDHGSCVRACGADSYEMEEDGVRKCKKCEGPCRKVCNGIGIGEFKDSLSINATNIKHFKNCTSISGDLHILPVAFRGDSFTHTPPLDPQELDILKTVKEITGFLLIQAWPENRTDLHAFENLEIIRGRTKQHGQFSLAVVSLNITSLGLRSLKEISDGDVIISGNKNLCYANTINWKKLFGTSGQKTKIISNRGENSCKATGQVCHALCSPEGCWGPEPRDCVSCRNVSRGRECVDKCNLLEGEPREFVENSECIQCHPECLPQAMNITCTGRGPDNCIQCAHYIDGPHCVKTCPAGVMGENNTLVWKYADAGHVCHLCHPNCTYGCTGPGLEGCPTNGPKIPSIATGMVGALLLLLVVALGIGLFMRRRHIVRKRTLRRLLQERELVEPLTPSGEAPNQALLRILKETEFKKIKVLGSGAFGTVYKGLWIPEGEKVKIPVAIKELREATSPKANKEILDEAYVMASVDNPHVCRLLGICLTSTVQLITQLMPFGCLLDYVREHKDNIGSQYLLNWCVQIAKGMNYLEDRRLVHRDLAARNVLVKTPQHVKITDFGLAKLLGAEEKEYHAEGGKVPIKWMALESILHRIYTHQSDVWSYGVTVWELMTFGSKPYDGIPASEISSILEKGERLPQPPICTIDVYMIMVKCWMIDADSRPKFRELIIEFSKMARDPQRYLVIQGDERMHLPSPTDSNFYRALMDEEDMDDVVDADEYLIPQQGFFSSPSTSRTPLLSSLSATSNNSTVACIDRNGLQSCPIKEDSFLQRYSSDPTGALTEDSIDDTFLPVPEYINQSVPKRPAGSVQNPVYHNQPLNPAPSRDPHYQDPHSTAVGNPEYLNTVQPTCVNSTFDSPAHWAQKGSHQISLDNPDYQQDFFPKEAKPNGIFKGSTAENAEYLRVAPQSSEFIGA
# panel of 442 kinases = test: kinase selectivity panel of 442 kinases; assay type: binding; settings: 10 μM, 386 nonmutant
# Chain of MEK1 (Q02750 whole entry): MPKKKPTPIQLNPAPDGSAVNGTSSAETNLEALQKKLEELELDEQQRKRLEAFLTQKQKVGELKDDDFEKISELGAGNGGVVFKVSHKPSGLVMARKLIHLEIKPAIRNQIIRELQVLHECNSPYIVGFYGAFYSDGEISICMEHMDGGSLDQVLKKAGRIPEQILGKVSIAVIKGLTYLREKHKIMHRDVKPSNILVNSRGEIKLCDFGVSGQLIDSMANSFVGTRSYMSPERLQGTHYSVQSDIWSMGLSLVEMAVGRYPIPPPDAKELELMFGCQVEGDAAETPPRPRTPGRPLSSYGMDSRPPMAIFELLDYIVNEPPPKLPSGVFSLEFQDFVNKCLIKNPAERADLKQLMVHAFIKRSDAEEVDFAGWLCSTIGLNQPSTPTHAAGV
compound,measurement,setting,value
Nc1[nH]nc2nnc(-c3c(-c4ccccc4)nn4ccccc34)cc12 [FR180204],Kd,MEK1,8.7 µM
same,effect on iron-mediated neuronal damage caused by hemoglobin breakdown,[1],can reduce iron-mediated neuronal damage
same,Kd,EGFR,1.2 µM
same,number of nonmutant kinases with >90% inhibition of kinase activity,panel of 442 kinases,29/386
same,number of nonmutant kinases with >99% inhibition of kinase activity,panel of 442 kinases,12 out of 386
